This is an account of results in ChEMBL document CHEMBL5149978, “Structural insights of oxindole based kinase inhibitors as anticancer agents: Recent advances” (Eur J Med Chem, 2021).

Assay [1] has as its system MCF7. The assay can be described thus: Anti-proliferative against human MCF-7 cells by SRB colorimetric assay. Type of assay: functional, cell-based.
Assay [2] concerns MCF7. The assay can be described thus: Anti-proliferative against human MCF-7 cells by MTT assay. It is filed as functional, cell-based.
The next assay deals with T47D. The experiment in a line: Anti-proliferative against human T-47D cells by MTT assay. Type of assay: functional, cell-based. For orientation: Tetrazolium assays rely on reduction of a dye to a coloured formazan, in cell work by metabolically active cells.
The subject of assay [3] is HCT-116. The experiment in a line: Antiproliferative against human HCT-116 cells assessed as reduction in cell proliferation incubated for 72 hrs by MTT assay. It is filed as functional, cell-based. To be noted: HCT-116, 72 h.
Assay [4] concerns MDA-MB-231. The assay can be described thus: Anti-proliferative activity against human MDA-MB-231 cells measured after 48 hrs by MTT assay. It is filed as functional, cell-based. Conditions: MDA-MB-231, 48 h.
A further assay concerns SW-620. The assay can be described thus: Anti-proliferative against human SW620 cells incubated for 48 hrs by MTT assay. To be noted: SW-620, 48 h. It is filed as functional, cell-based.
The test system of assay [5] is A549. The experiment in a line: Anti-proliferative against human A549 cells incubated for 48 hrs by MTT assay. Type of assay: functional, cell-based. Conditions: A549, 48 h.
In assay [6] the target is Serine/threonine-protein kinase pim-1 (Homo sapiens, UniProt P11309). The experiment in a line: Inhibition of PIM1 (unknown origin).
The test system of assay [7] is HeLa. The assay can be described thus: Anti-proliferative against human HeLa cells incubated for 48 hrs by MTT assay. Type of assay: functional, cell-based.
Assay [8] deals with MDA-MB-231. The assay can be described thus: Anti-proliferative against human MDA-MB-231 cells by SRB colorimetric assay. It is filed as functional, cell-based. On the technique in general: In SRB staining, fixed cells bind dye roughly in proportion to their protein.
Assay [9] can be described thus: Inhibition of tyrosine kinase receptor (unknown origin) by ELISA. Details: species or system Homo sapiens.
Assay [10] has as its system HeLa. The assay can be described thus: Cytotoxicity against human HeLa cells measured after 48 hrs by MTS assay. Type of assay: functional, cell-based.
Assay [11] concerns the target Apoptosis regulator Bcl-2 (Homo sapiens, UniProt P10415). The experiment in a line: Inhibition of BCL2 (unknown origin).
Assay [12] has as its system HCT-116. The assay can be described thus: Anti-proliferative against human HCT-116 cells by SRB colorimetric assay. Type of assay: functional, cell-based.
Assay [13] has as its target Cyclin-dependent kinase 2 (Homo sapiens, UniProt P24941). The experiment in a line: Inhibition of CDK2 (unknown origin).
Assay [14] concerns A549. The assay can be described thus: Anti-proliferative against human A549 cells by SRB colorimetric assay. Type of assay: functional, cell-based.
The target in assay [15] is Platelet-derived growth factor receptor beta (Homo sapiens, UniProt P09619). The assay can be described thus: Inhibition of PDGFR beta (unknown origin).

pIC50: −log10 of the molar value.

Chain of Platelet-derived growth factor receptor beta (P09619 whole entry): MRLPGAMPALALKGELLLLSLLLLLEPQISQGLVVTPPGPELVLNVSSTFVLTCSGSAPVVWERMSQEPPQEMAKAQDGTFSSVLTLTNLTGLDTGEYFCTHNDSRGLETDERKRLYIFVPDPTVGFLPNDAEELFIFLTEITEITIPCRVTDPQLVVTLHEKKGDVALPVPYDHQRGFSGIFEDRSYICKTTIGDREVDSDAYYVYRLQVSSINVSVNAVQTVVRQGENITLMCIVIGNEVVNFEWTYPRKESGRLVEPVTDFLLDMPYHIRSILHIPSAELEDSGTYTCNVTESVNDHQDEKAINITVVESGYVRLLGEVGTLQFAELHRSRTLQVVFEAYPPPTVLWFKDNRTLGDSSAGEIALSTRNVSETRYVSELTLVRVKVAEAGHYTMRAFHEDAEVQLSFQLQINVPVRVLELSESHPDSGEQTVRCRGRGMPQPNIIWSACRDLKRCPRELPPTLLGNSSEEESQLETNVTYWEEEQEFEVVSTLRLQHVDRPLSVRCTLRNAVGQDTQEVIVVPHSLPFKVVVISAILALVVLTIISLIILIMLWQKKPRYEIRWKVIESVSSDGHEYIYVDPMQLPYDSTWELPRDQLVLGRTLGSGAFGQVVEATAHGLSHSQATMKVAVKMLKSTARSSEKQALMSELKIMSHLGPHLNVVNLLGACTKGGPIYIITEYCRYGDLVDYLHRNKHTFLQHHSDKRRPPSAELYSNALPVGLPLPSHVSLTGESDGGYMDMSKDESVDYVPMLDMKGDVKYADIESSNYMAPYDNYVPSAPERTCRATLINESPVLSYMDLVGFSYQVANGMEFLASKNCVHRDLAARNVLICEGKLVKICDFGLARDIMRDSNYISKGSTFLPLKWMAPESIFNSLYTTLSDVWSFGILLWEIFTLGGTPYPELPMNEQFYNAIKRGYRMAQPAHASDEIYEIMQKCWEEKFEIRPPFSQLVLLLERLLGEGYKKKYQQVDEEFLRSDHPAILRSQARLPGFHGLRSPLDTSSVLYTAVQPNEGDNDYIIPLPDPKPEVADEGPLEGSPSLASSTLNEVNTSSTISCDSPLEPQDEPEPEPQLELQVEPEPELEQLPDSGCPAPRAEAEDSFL
Chain of Apoptosis regulator Bcl-2 (P10415 whole entry): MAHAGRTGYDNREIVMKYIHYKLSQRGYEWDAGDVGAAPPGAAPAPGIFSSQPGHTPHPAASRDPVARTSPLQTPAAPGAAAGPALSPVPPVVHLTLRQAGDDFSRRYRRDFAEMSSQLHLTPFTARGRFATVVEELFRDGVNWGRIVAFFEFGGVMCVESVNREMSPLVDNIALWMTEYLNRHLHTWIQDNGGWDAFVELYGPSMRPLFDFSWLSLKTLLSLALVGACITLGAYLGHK
Chain of Serine/threonine-protein kinase pim-1 (P11309 whole entry): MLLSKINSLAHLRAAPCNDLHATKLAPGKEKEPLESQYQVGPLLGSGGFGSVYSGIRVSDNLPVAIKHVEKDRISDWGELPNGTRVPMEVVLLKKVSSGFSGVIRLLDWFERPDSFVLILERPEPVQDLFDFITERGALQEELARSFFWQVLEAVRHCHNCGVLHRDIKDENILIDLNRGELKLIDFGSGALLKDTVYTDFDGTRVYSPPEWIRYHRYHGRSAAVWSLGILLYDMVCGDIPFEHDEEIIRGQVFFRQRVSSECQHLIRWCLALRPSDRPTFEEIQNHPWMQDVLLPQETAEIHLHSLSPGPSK

What is called pIC50 is the negative decadic logarithm of the IC50, by convention in mol/L. As to `Cc1ccc2c(c1)/C(=N/NC(=O)c1cc3ccccc3[nH]1)C(=O)N2`, the pIC50 in the assay with MCF7 [1] is 6.41.
`COc1ccc2c(c1)/C(=N/NC(=O)c1cc3cc(Br)ccc3o1)C(=O)N2`: the negative-log IC50 (pIC50) with MCF7 [2] was 5.64; in the assay with T47D, 5.11.
In the case of `CCN(CC)CCN1Cc2[nH]c(/C=C3\C(=O)Nc4ccc(Br)cc43)c(C)c2C1=O`, the pIC50 in the assay on HCT-116 [3] was 5.98.
In the assay with MDA-MB-231 [4], `N#CC1=C(c2ccccc2)Nc2c(c(-c3cccs3)nn2-c2ccccc2)C12C(=O)Nc1ccc(Cl)cc12` (stereo unspecified) had a pIC50 of 5.19.
`CCN(CC)CCN1Cc2[nH]c(/C=C3\C(=O)Nc4ccc(I)cc43)c(C)c2C1=O`: the pIC50 in the assay on HCT-116 [3] is 6.38.
As to `O=C(/C=C1\C(=O)Nc2ccccc21)/C=C/c1ccc(F)cc1`, the pIC50 was 6.89 in the assay with SW-620, 5.69 in the assay on A549 [5], 5.30 in [6] and 5.82 with HeLa [7].
`O=C(N/N=C1\C(=O)N(Cc2ccc(F)cc2)c2ccccc21)c1cc2ccccc2[nH]1` gave a negative logarithm of the IC50 (pIC50) with MDA-MB-231 [8] of 5.99.
Consider `O=C1Nc2ccc(Br)cc2/C1=N/NC(=O)c1cc2cc(Br)ccc2o1`, for which the results for the pIC50 in the assay on MCF7 [2] and in the assay on T47D were 5.47 and 5.42, respectively.
`Cc1ccc2c(c1)/C(=N/NC(=O)c1cc3cc(Br)ccc3o1)C(=O)N2`: the pIC50 with MCF7 [2] was 5.46; in the assay on T47D, 5.34.
As for `COc1cccc(C[S+]([O-])/C=C2\C(=O)Nc3ccccc32)c1` (stereo unspecified), the values for the pIC50 (in assay [9]; in the assay on HeLa [10]) were 5.65 and 4.64, respectively.
Regarding `CCCn1cc(/C=N/N=C2\C(=O)Nc3ccc(C)cc32)c2ccccc21`, the pIC50 in assay [11] is 6.34; in the assay on HCT-116 [12], 5.59; in assay [13], 6.07; in the assay with A549 [14], 5.14; in the assay with MDA-MB-231 [8] it was 5.33.
Consider `COc1ccc2c(c1)/C(=N\Nc1nnc3n1N=C(c1ccccc1)CS3)C(=O)N2`, for which the pIC50 in [15] is 6.43.
In the case of `O=C1Nc2ccccc2/C1=C/[S+]([O-])Cc1ccc(Br)cc1` (stereo unspecified), the pIC50 was 5.87 in assay [9] and 4.62 with HeLa [10].
In the assay with MDA-MB-231 [4], `N#CC1=C(c2ccccc2)Nc2c(c(-c3cccs3)nn2-c2ccccc2)C12C(=O)Nc1ccc(Br)cc12` (stereo unspecified) showed a pIC50 of 5.17.
